Tested on: 324938-238-R-J1-PDC complex spheroid viability
Assay: Anticancer human tumor 324938-238-R-J1-PDC patient-derived bladder carcinoma cell line growth inhibition
Settings: for IC50: curve of first compound; for viability, T/C: stronger effect = lower value
Summary of the method: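 Complex spheroids of tumor cells with HUVEC and human MSCs, exposed to iadademstat combined with other agents. Each agent tested in half-log steps from near clinical Cmax (else 10 microM top), DMSO ≤0.25%.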

[1] = second compound 0.1 µM, first compound 0.00949 µM
[2] = second compound 0.1 µM, first compound 0.03 µM
[3] = second compound 0.1 µM, first compound 0.0949 µM
[4] = second compound 0.1 µM, first compound 0.3 µM
[5] = second compound 0.316 µM, first compound 0.00949 µM
[6] = second compound 0.316 µM, first compound 0.03 µM
[7] = second compound 0.316 µM, first compound 0.0949 µM
[8] = second compound 0.316 µM, first compound 0.3 µM
[9] = second compound 1 µM, first compound 0.00949 µM
[10] = second compound 1 µM, first compound 0.03 µM
[11] = second compound 1 µM, first compound 0.0949 µM
[12] = second compound 1 µM, first compound 0.3 µM
[13] = second compound 3.16 µM, first compound 0.00949 µM
[14] = second compound 3.16 µM, first compound 0.03 µM
[15] = second compound 3.16 µM, first compound 0.0949 µM
[16] = second compound 3.16 µM, first compound 0.3 µM
[17] = second compound 10 µM, first compound 0.00949 µM
[18] = second compound 10 µM, first compound 0.03 µM
[19] = second compound 10 µM, first compound 0.0949 µM
[20] = second compound 10 µM, first compound 0.3 µM
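Note: spheroids also contain HUVEC and human MSCs and agents combined with iadademstat; spheroids exposed to agents for 7 days before readout.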

Compound: CCc1c2c(nc3ccc(O)cc13)-c1cc3c(c(=O)n1C2)COC(=O)[C@]3(O)CC + NC1CC1c1ccc(-c2cccc(O)c2)cc1
- IC50 (second compound 0.1 µM): < 0.000949 µM
- IC50 (second compound 0.316 µM): < 0.000949 µM
- IC50 (second compound 1 µM): < 0.000949 µM
- IC50 (second compound 3.16 µM): < 0.000949 µM
- IC50 (second compound 10 µM): < 0.000949 µM
- viability, T/C (second compound 0.1 µM, first compound 0.000949 µM): 8.63%
- viability, T/C (second compound 0.1 µM, first compound 0.003 µM): 8.28%
- viability, T/C [1]: 6.38%
- viability, T/C [2]: 2.62%
- viability, T/C [3]: 1.19%
- viability, T/C [4]: 0.47%
- viability, T/C (second compound 0.316 µM, first compound 0.000949 µM): 7.65%
- viability, T/C (second compound 0.316 µM, first compound 0.003 µM): 7.41%
- viability, T/C [5]: 5.98%
- viability, T/C [6]: 2.79%
- viability, T/C [7]: 0.46%
- viability, T/C [8]: 0.55%
- viability, T/C (second compound 1 µM, first compound 0.000949 µM): 6.57%
- viability, T/C (second compound 1 µM, first compound 0.003 µM): 8.14%
- viability, T/C [9]: 6.37%
- viability, T/C [10]: 1.95%
- viability, T/C [11]: 0.51%
- viability, T/C [12]: 0.15%
- viability, T/C (second compound 3.16 µM, first compound 0.000949 µM): 6.75%
- viability, T/C (second compound 3.16 µM, first compound 0.003 µM): 6.96%
- viability, T/C [13]: 6.25%
- viability, T/C [14]: 2.46%
- viability, T/C [15]: 0.53%
- viability, T/C [16]: 0.31%
- viability, T/C (second compound 10 µM, first compound 0.000949 µM): 10.5%
- viability, T/C (second compound 10 µM, first compound 0.003 µM): 9.76%
- viability, T/C [17]: 7.12%
- viability, T/C [18]: 2.62%
- viability, T/C [19]: 0.17%
- viability, T/C [20]: 0.23%

Compound: Nc1ccccc1NC(=O)c1ccc(CNC(=O)OCc2cccnc2)cc1 + NC1CC1c1ccc(-c2cccc(O)c2)cc1
- IC50 (second compound 0.1 µM): 0.501 µM
- IC50 (second compound 0.316 µM): 0.437 µM
- IC50 (second compound 1 µM): 0.487 µM
- IC50 (second compound 3.16 µM): 0.489 µM
- IC50 (second compound 10 µM): 0.401 µM
- viability, T/C [1]: 86.6%
- viability, T/C [2]: 87.6%
- viability, T/C [3]: 70.2%
- viability, T/C [4]: 62.6%
- viability, T/C (second compound 0.1 µM, first compound 0.949 µM): 36.7%
- viability, T/C (second compound 0.1 µM, first compound 3 µM): 7.26%
- viability, T/C [5]: 83.8%
- viability, T/C [6]: 80.1%
- viability, T/C [7]: 71.7%
- viability, T/C [8]: 56.1%
- viability, T/C (second compound 0.316 µM, first compound 0.949 µM): 35.9%
- viability, T/C (second compound 0.316 µM, first compound 3 µM): 5.68%
- viability, T/C [9]: 67.2%
- viability, T/C [10]: 76%
- viability, T/C [11]: 66.7%
- viability, T/C [12]: 56.3%
- viability, T/C (second compound 1 µM, first compound 0.949 µM): 39.5%
- viability, T/C (second compound 1 µM, first compound 3 µM): 3.75%
- viability, T/C [13]: 76.7%
- viability, T/C [14]: 67%
- viability, T/C [15]: 70.4%
- viability, T/C [16]: 59.2%
- viability, T/C (second compound 3.16 µM, first compound 0.949 µM): 37.6%
- viability, T/C (second compound 3.16 µM, first compound 3 µM): 5.73%
- viability, T/C [17]: 63.2%
- viability, T/C [18]: 66.1%
- viability, T/C [19]: 68.2%
- viability, T/C [20]: 51.2%
- viability, T/C (second compound 10 µM, first compound 0.949 µM): 36.4%
- viability, T/C (second compound 10 µM, first compound 3 µM): 6.9%

Compound: O=C(c1cc(Cc2n[nH]c(=O)c3ccccc23)ccc1F)N1CCN(C(=O)C2CC2)CC1 + NC1CC1c1ccc(-c2cccc(O)c2)cc1
- IC50 (second compound 0.1 µM): 2.15 µM
- IC50 (second compound 0.316 µM): 1.98 µM
- IC50 (second compound 1 µM): 0.917 µM
- IC50 (second compound 3.16 µM): 1.5 µM
- IC50 (second compound 10 µM): 1.22 µM
- viability, T/C (second compound 0.1 µM, first compound 0.0316 µM): 89.8%
- viability, T/C (second compound 0.1 µM, first compound 0.1 µM): 80.6%
- viability, T/C (second compound 0.1 µM, first compound 0.316 µM): 72.4%
- viability, T/C (second compound 0.1 µM, first compound 1 µM): 61.4%
- viability, T/C (second compound 0.1 µM, first compound 3.16 µM): 43.3%
- viability, T/C (second compound 0.1 µM, first compound 10 µM): 33.9%
- viability, T/C (second compound 0.316 µM, first compound 0.0316 µM): 87.8%
- viability, T/C (second compound 0.316 µM, first compound 0.1 µM): 78.5%
- viability, T/C (second compound 0.316 µM, first compound 0.316 µM): 77.1%
- viability, T/C (second compound 0.316 µM, first compound 1 µM): 62.7%
- viability, T/C (second compound 0.316 µM, first compound 3.16 µM): 40.4%
- viability, T/C (second compound 0.316 µM, first compound 10 µM): 36.3%
- viability, T/C (second compound 1 µM, first compound 0.0316 µM): 74.2%
- viability, T/C (second compound 1 µM, first compound 0.1 µM): 74.2%
- viability, T/C (second compound 1 µM, first compound 0.316 µM): 64.4%
- viability, T/C (second compound 1 µM, first compound 1 µM): 48%
- viability, T/C (second compound 1 µM, first compound 3.16 µM): 40.3%
- viability, T/C (second compound 1 µM, first compound 10 µM): 34.1%
- viability, T/C (second compound 3.16 µM, first compound 0.0316 µM): 68.2%
- viability, T/C (second compound 3.16 µM, first compound 0.1 µM): 74%
- viability, T/C (second compound 3.16 µM, first compound 0.316 µM): 77.7%
- viability, T/C (second compound 3.16 µM, first compound 1 µM): 56%
- viability, T/C (second compound 3.16 µM, first compound 3.16 µM): 41.3%
- viability, T/C (second compound 3.16 µM, first compound 10 µM): 36.2%
- viability, T/C (second compound 10 µM, first compound 0.0316 µM): 73.1%
- viability, T/C (second compound 10 µM, first compound 0.1 µM): 66.7%
- viability, T/C (second compound 10 µM, first compound 0.316 µM): 66.3%
- viability, T/C (second compound 10 µM, first compound 1 µM): 49.9%
- viability, T/C (second compound 10 µM, first compound 3.16 µM): 43.8%
- viability, T/C (second compound 10 µM, first compound 10 µM): 38.2%

Source: PubChem BioAssay AID1918935 (Molecular Pharmacology Branch, DTP, NCI, 2023)
